Data from patent publication US20260294915A1, “COMBINATION THERAPY COMPRISING A MAT2A INHIBITOR AND A TOPOISOMERASE INHIBITOR, A SPLICING INHIBITOR SULFONAMIDE, OR A KIF18 INHIBITOR” (IDEAYA BIOSCIENCES, INC., priority 2023, published 2026).

What was measured:
Assay type in all cases: cell-based
RT112/84 [1] = experiment: 10-day proliferation (CTG), equimolar Compound A + Compound B (Example 1); settings: Homo sapiens, RT112/84, 240 h, 10 days, single agent or 1:1 combo; for IC30: read-out: gIC30; for IC40: read-out: gIC40; for IC50: read-out: gIC50; for IC60: read-out: gIC60; for IC70: read-out: gIC70; for IC80: read-out: gIC80; for IC90: read-out: gIC90; for IC100: read-out: gIC100
Procedure: (§1) A 10-day proliferation assay was performed in a panel of 5 MTAP-deficient and 2 wild type non-small cell lung and bladder cancer cell lines. Optimal cell seeding for all cell lines was determined by assessing the growth over a range of seeding densities in a 384-well format to identify conditions that permitted proliferation for 10 days. Cells were then plated at the optimal seeding density and treated with 20-point, two-fold dilution series of Compound A, sovilnesib (“Compound B”), or an equimolar combination of Compound A and Compound B. Concentrations tested for Compound A and Compound B alone or in combination ranged from 0.038 nM to 20,000 nM. A plate of cells was harvested at the time of compound addition to quantify the number of cells at the start of the combination (T0). For cell quantification, the harvested cells were lysed with Promega CellTiter-Glo (CTG) reagent according to the manufacturer's protocol and the chemiluminescent signal was detected on a Synergy Neo plate reader. CTG estimates cell number through detection of cellular ATP levels. Cells were incubated with the drug combinations at 37° C. with 5% CO2 for 10 days. Cells were then lysed with CTG and the chemiluminescent signal was measured.
(§2) CTG values obtained after the 10-day treatment were background subtracted and expressed as a percent of the T0 value. Data were plotted against compound concentration and fit with a four-parameter equation to generate dose response curves for each single agent and the equimolar combination. Growth ICx (gICx) values ranging from gIC30 to gIC100 were interpolated from the fitted curves. Synergistic growth inhibition was assessed by determination of Combination Index (CI) values at these various points across the titration using the mutually non-exclusive equation [Chou, 1983; Chou, 1981] shown below where A equals the gIC value of Compound A, B equals the gICx value of Compound B, and A+B or B+A equals the gICx value of the equimolar combination. A Combination Index value less than 1.0 was considered synergistic.
(§3) Synergy was measured for equimolar combinations of Compound A and Compound B utilizing the mutually non-exclusive Combination Index equation across gICx values ranging from gIC30-gIC100. Combination Index values are shown for: NCI-H838 (3A), SW900 (3B), RT112/84 (3C), UMUC5 (3D), and UMUC11 (3E).

UMUC5 = experiment: as above; settings: 240 h, 10 days, single agent or 1:1 combo; for IC30: read-out: gIC30; for IC40: read-out: gIC40; for IC50: read-out: gIC50; for IC60: read-out: gIC60; for IC70: read-out: gIC70; for IC80: read-out: gIC80; for IC90: read-out: gIC90; for IC100: read-out: gIC100
Procedure: as §1, §2, §3

SW900 = experiment: as above; settings: Homo sapiens, SW900, 240 h, 10 days, single agent or 1:1 combo; for IC30: read-out: gIC30; for IC40: read-out: gIC40; for IC50: read-out: gIC50; for IC60: read-out: gIC60; for IC70: read-out: gIC70; for IC80: read-out: gIC80; for IC90: read-out: gIC90; for IC100: read-out: gIC100
Procedure: as §1, §2, §3

RT112/84 [2] = experiment: 10-day proliferation (CTG), Compound B titration + 1000 nM Compound A, Bliss (Example 2); set-up: key: GDI, -100 to 100; 0 = cell number at T0
Procedure: (§4) A 10-day proliferation assay was performed in a panel of 5 MTAP-deficient and 2 wild type non-small cell lung and bladder cancer cell lines. Optimal cell seeding for all cell lines was determined by assessing the growth over a range of seeding densities in a 384-well format to identify conditions that permitted proliferation for 10 days. Cells were then plated at the optimal seeding density and treated with 20-point, two-fold dilution series of Compound B in combination with a 1000 nM fixed concentration of Compound A. Single agent titrations for Compound A and Compound B were included for comparison. Concentrations tested for Compound A and Compound B alone or in combination ranged from 0.038 nM to 20,000 nM. A plate of cells was harvested at the time of compound addition to quantify the number of cells at the start of the combination (T0). For cell quantification, the harvested cells were lysed with Promega CellTiter-Glo (CTG) reagent according to the manufacturer's protocol and the chemiluminescent signal was detected as described in Example 1 above. Cells were incubated with the drug combinations at 37° C. with 5% CO2 for 10 days. Cells were then lysed with CTG and the chemiluminescent signal was measured.
(§5) CTG values obtained after the 10-day treatment were background subtracted and expressed as a percent of the T0 value set at 100%. Data were plotted against compound concentration and fit with a four-parameter equation to generate single agent dose response curves. Percent inhibition was determined for each combination and single agent concentration compared to a DMSO control. In addition, the overall net growth or death of the cells was calculated and reported as a growth death index (GDI) value on a scale of −100 to 100 with the midpoint (0) being the number of cells at the beginning of the combination (T0).
(§6) Predicted inhibition was calculated using (Ea+Eb)−(Ea*Eb) where E equals the effect (inhibition) of each single agent (a and b). A difference between the observed inhibition percentage and the predicted inhibition percentage greater than 10% was considered synergistic. A Bliss score was only calculated for combinations eliciting >20% growth inhibition (GDI value <80). Since Bliss is calculated based on growth inhibition, scores within cytotoxic dose ranges may not accurately reflect synergistic cytotoxicity.
(§7) Synergy was measured across the Compound B titration with 1000 nM Compound A by Bliss Independence analysis. Bliss scores >10 are indicated by “*” and are considered synergistic. […] Synergy as reported using Bliss may be underrepresented within cytotoxic dose ranges. Growth death index values are shown for the combination titration and each single agent Compound A (Cmpd A) and Compound B (Cmpd B) on a scale of −100 to 100 with the midpoint (0) being the number of cells at the beginning of the combination (T0).

UMUC11 = experiment: as above; set-up: key: GDI, -100 to 100; 0 = cell number at T0
Procedure: as §4, §5, §6, §7

[3] = Cmpd B 0.04 nM, combo: + 1000 nM Cmpd A
[4] = Cmpd B 0.1 nM, combo: + 1000 nM Cmpd A
[5] = Cmpd B 0.2 nM, combo: + 1000 nM Cmpd A
[6] = Cmpd B 0.3 nM, combo: + 1000 nM Cmpd A
[7] = Cmpd B 0.6 nM, combo: + 1000 nM Cmpd A
[8] = Cmpd B 1.2 nM, combo: + 1000 nM Cmpd A
[9] = Cmpd B 2.4 nM, combo: + 1000 nM Cmpd A
[10] = Cmpd B 4.9 nM, combo: + 1000 nM Cmpd A
[11] = Cmpd B 9.8 nM, combo: + 1000 nM Cmpd A
[12] = Cmpd B 19.5 nM, combo: + 1000 nM Cmpd A
[13] = Cmpd B 39.1 nM, combo: + 1000 nM Cmpd A
[14] = Cmpd B 78.1 nM, combo: + 1000 nM Cmpd A
[15] = Cmpd B 156.3 nM, combo: + 1000 nM Cmpd A
[16] = Cmpd B 312.5 nM, combo: + 1000 nM Cmpd A
[17] = Cmpd B 625 nM, combo: + 1000 nM Cmpd A
[18] = Cmpd B 1250 nM, combo: + 1000 nM Cmpd A
[19] = Cmpd B 2500 nM, combo: + 1000 nM Cmpd A
[20] = Cmpd B 5000 nM, combo: + 1000 nM Cmpd A
[21] = Cmpd B 10000 nM, combo: + 1000 nM Cmpd A
[22] = Cmpd B 20000 nM, combo: + 1000 nM Cmpd A

`Nc1nc(=O)n(-c2ccccc2Cl)c2nc(C(F)(F)F)ccc12` [Compound A] gave an IC30 (RT112/84 [1]) of 0.277 µM, an IC40 (RT112/84 [1]) of 0.854 µM and an IC50 (RT112/84 [1]) of 3 µM. It also gave an IC60 (RT112/84 [1]) of 16 µM, an IC70 (RT112/84 [1]) of 20 µM and an IC80 (RT112/84 [1]) of 20 µM. For the same compound, the IC90 (RT112/84 [1]) was 20 µM, the IC100 (RT112/84 [1]) was 20 µM and the IC30 (UMUC5) was 0.357 µM. The IC40 (UMUC5) was 1.35 µM, the IC50 (UMUC5) was 5.16 µM and the IC60 (UMUC5) was 19.4 µM. The IC70 (UMUC5) was 20 µM, the IC80 (UMUC5) was 20 µM and the IC90 (UMUC5) was 20 µM. It also gave an IC100 (UMUC5) of 20 µM, an IC30 (SW900) of 20 µM and an IC40 (SW900) of 20 µM. It also gave an IC50 (SW900) of 20 µM, an IC60 (SW900) of 20 µM and an IC70 (SW900) of 20 µM. The IC80 (SW900) was 20 µM, the IC90 (SW900) was 20 µM and the IC100 (SW900) was 20 µM. For the same compound, the GDI (RT112/84 [2]; single agent, 1000 nM Cmpd A) was 60 and the GDI (UMUC11; single agent, 1000 nM Cmpd A) was 92.

Compound `Cc1cc(NC(=O)c2ccc(NS(=O)(=O)CCO)cc2N2CCC3(CC2)CC3)nc(N2CCC(F)(F)CC2)n1` [Compound B, N-(2-(4,4-difluoropiperidin-1-yl)-6-methylpyrimidin-4-yl)-4-((2-hydroxyethyl)sulfonamido)-2-(6-azaspiro[2.5]octan-6-yl)benzamide] has an IC30 (RT112/84 [1]) of 0.15 µM, an IC40 (RT112/84 [1]) of 0.17 µM and an IC50 (RT112/84 [1]) of 0.192 µM. For the same compound, the IC60 (RT112/84 [1]) was 0.222 µM, the IC70 (RT112/84 [1]) was 0.273 µM and the IC80 (RT112/84 [1]) was 10.3 µM. For the same compound, the IC90 (RT112/84 [1]) was 20 µM, the IC100 (RT112/84 [1]) was 20 µM and the IC30 (UMUC5) was 0.17 µM. It also gave an IC40 (UMUC5) of 0.194 µM, an IC50 (UMUC5) of 0.221 µM and an IC60 (UMUC5) of 0.253 µM. It also gave an IC70 (UMUC5) of 0.296 µM, an IC80 (UMUC5) of 0.37 µM and an IC90 (UMUC5) of 0.662 µM. The IC100 (UMUC5) was 20 µM, the IC30 (SW900) was 5.48 µM and the IC40 (SW900) was 8.55 µM. For the same compound, the IC50 (SW900) was 12.3 µM, the IC60 (SW900) was 16.6 µM and the IC70 (SW900) was 19.9 µM. It also gave an IC80 (SW900) of 20 µM, an IC90 (SW900) of 20 µM and an IC100 (SW900) of 20 µM. For the same compound, the GDI (RT112/84 [2]; [3]) was 100, the GDI (RT112/84 [2]; [4]) was 100 and the GDI (RT112/84 [2]; [5]) was 100. It also gave a GDI (RT112/84 [2]; [6]) of 100, a GDI (RT112/84 [2]; [7]) of 100 and a GDI (RT112/84 [2]; [8]) of 100. It also gave a GDI (RT112/84 [2]; [9]) of 100, a GDI (RT112/84 [2]; [10]) of 100 and a GDI (RT112/84 [2]; [11]) of 100. For the same compound, the GDI (RT112/84 [2]; [12]) was 100, the GDI (RT112/84 [2]; [13]) was 100 and the GDI (RT112/84 [2]; [14]) was 100. It also gave a GDI (RT112/84 [2]; [15]) of 63, a GDI (RT112/84 [2]; [16]) of 30 and a GDI (RT112/84 [2]; [17]) of 24. It also gave a GDI (RT112/84 [2]; [18]) of 31, a GDI (RT112/84 [2]; [19]) of 31 and a GDI (RT112/84 [2]; [20]) of 33. It also gave a GDI (RT112/84 [2]; [21]) of 2, a GDI (RT112/84 [2]; [22]) of −86 and a GDI (UMUC11; [3]) of 100. It also gave a GDI (UMUC11; [4]) of 100, a GDI (UMUC11; [5]) of 100 and a GDI (UMUC11; [6]) of 100. For the same compound, the GDI (UMUC11; [7]) was 100, the GDI (UMUC11; [8]) was 100 and the GDI (UMUC11; [9]) was 100. For the same compound, the GDI (UMUC11; [10]) was 100, the GDI (UMUC11; [11]) was 100 and the GDI (UMUC11; [12]) was 100. It also gave a GDI (UMUC11; [13]) of 100, a GDI (UMUC11; [14]) of 100 and a GDI (UMUC11; [15]) of 100. For the same compound, the GDI (UMUC11; [16]) was 87, the GDI (UMUC11; [17]) was 72 and the GDI (UMUC11; [18]) was 70. It also gave a GDI (UMUC11; [19]) of 74, a GDI (UMUC11; [20]) of 63 and a GDI (UMUC11; [21]) of 32. It also gave a GDI (UMUC11; [22]) of −88.
